From patent US12492164B2, “Fluorine substituted cyclohexene analogues of gamma-aminobutyric acid (GABA)” (Northwestern University, priority 2019, dated 2025)
Counter-ions that a name gives are not always drawn. Like-named read-outs stand apart in the source and are kept apart here.

Experiments:
GABA-AT = target: T1, GABA-AT (Sus scrofa, UniProt P80147); assay: Coupled enzyme assay, time-dependent inactivation of GABA-AT; type: biochemical, pig
T1 construct: GABA-AT was isolated from pig brains and purified according to a literature procedure; from tissue; host or cells: pig brain
Procedure: (§1) Kinetic Studies of Fluorine-Substituted Cyclohexene Analogues.
(§2) hOAT and PYCR1 were expressed, grown, and purified according to literature procedures.4, 5 GABA-AT was isolated from pig brains and purified according to a literature procedure.6 Coupled enzyme assays for GABA-AT, hOAT, Ala-AT, and Asp-AT were carried out according to previous procedures.7, 8

hOAT = target: T2, hOAT (Homo sapiens, UniProt P04181); assay: Coupled enzyme assay, time-dependent inactivation of hOAT; type: biochemical
T2 construct: made in house
T2 sequence (P04181 26-439): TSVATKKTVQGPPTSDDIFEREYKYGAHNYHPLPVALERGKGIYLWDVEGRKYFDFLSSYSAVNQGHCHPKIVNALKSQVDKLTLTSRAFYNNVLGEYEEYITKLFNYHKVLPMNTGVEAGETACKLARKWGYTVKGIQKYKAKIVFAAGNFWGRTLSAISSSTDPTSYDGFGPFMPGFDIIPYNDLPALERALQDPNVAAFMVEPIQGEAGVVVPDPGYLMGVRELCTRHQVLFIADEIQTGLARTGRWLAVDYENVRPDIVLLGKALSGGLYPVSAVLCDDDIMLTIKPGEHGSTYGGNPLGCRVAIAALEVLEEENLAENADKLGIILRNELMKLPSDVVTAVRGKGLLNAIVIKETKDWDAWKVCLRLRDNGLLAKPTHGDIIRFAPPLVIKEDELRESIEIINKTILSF
Procedure: as §1, §2

HCC tumor = details: doses of 0.1 and 1.0 mg/kg; cited from earlier work
[1] = inactivation of GABA-AT, pH 8.0
[2] = inactivation of GABA-AT, pH 8.0, read-out: kinact/KI (converted)
[3] = read-out: kinact/KI (converted)
[4] = GABA-AT, pH 8.0, bound: KI is greater than kobs (max)/ratio (footnote b)
[5] = GABA-AT, pH 8.0, bound: kinact is greater than maximum kobs in time-dependent assay (footnote b)

T1 sequence (P80147 29-500): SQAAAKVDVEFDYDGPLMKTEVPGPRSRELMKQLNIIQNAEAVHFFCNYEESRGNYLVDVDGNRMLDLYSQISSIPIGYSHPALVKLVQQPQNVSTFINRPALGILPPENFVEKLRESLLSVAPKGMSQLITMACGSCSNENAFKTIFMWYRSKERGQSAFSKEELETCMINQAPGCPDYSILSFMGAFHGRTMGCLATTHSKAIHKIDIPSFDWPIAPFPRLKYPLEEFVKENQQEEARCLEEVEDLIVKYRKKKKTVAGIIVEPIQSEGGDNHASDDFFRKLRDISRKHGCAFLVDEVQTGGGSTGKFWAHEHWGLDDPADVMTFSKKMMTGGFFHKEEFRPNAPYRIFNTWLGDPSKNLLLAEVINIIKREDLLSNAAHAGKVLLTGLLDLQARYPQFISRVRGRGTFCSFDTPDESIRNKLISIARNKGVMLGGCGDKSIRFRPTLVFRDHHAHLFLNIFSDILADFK

Ki (GABA-AT; [1]) | kinact (GABA-AT; [1]) | kinact/KI (GABA-AT; [2]) | kinact/KI (hOAT; [3]) | Ki (hOAT) | kinact (hOAT; read-out: kinact (converted)) | Ki (GABA-AT; GABA-AT, pH 6.5) | kinact (GABA-AT; GABA-AT, pH 6.5) | kinact/KI (GABA-AT; GABA-AT, pH 6.5, read-out: kinact/KI (converted)) | kinact/KI (GABA-AT; GABA-AT, pH 8.0, ratio determined by the slope of kobs vs [I] (footnote b), read-out: kinact/KI (converted)) | Structure (SMILES) | in vivo HCC tumor growth (HCC tumor) | α-fetoprotein levels (a biomarker for HCC) (HCC tumor) | kinact (hOAT) | kinact/KI (hOAT) | Ki (GABA-AT; [4]) | kinact (GABA-AT; [5]) | kinact/KI (GABA-AT; pH 8)
78 ± 40 µM | 0.000283 s⁻¹ | 3.67 M⁻¹ s⁻¹ | 1 M⁻¹ s⁻¹ |  |  |  |  |  |  | N[C@H]1C[C@@H](C(=O)O)C[C@@H]1F [Compound 1, (1R,3S,4S)-3-amino-4-fluorocyclopentane-1-carboxylic acid, reference compound] |  |  |  |  |  |  | 
2530 ± 710 µM | 0.00163 s⁻¹ | 0.65 M⁻¹ s⁻¹ | 42.7 M⁻¹ s⁻¹ | 31 ± 7 µM | 0.00133 s⁻¹ |  |  |  |  | N[C@H]1C=C(C(=O)O)CC[C@@H]1F [Compound 8, (3S,4S)-3-Amino-4-fluorocyclohex-1-ene-1-carboxylic acid hydrochloride] |  |  |  |  |  |  | 
 |  |  | 339 M⁻¹ s⁻¹ | 2.3 ± 0.7 µM | 0.0008 s⁻¹ | 1100 µM | 0.00333 s⁻¹ | 3 M⁻¹ s⁻¹ | 25.3 M⁻¹ s⁻¹ | N[C@H]1C=C(C(=O)O)CCC1(F)F [Compound 9, (S)-3-Amino-4,4-difluorocyclohex-1-ene-1-carboxylic acid hydrochloride] |  |  |  |  | > 120 µM | > 0.003 s⁻¹ | 
4280 ± 2050 µM | 0.000467 s⁻¹ | 0.108 M⁻¹ s⁻¹ | 0.283 M⁻¹ s⁻¹ | 4380 ± 860 µM | 0.00125 s⁻¹ |  |  |  |  | N[C@H]1CC(C(=O)O)=CC[C@@H]1F [Compound 10, (4S,5S)-5-Amino-4-fluorocyclohex-1-ene-1-carboxylic acid hydrochloride] |  |  |  |  |  |  | 

Structure (SMILES) | Ki (GABA-AT; [1]) | kinact (GABA-AT; [1]) | kinact/KI (GABA-AT; [2]) | kinact/KI (hOAT; [3]) | Ki (hOAT) | kinact (hOAT; read-out: kinact (converted)) | Ki (GABA-AT; GABA-AT, pH 6.5) | kinact (GABA-AT; GABA-AT, pH 6.5) | kinact/KI (GABA-AT; GABA-AT, pH 6.5, read-out: kinact/KI (converted)) | kinact/KI (GABA-AT; GABA-AT, pH 8.0, ratio determined by the slope of kobs vs [I] (footnote b), read-out: kinact/KI (converted)) | in vivo HCC tumor growth (HCC tumor) | α-fetoprotein levels (a biomarker for HCC) (HCC tumor) | kinact (hOAT) | kinact/KI (hOAT) | Ki (GABA-AT; [4]) | kinact (GABA-AT; [5]) | kinact/KI (GABA-AT; pH 8)
N[C@H]1C[C@@H](C(=O)O)CC1=C(C(F)(F)F)C(F)(F)F [Compound 7, (1S,3S)-3-Amino-4-(hexafluoropropan-2-ylidenyl)cyclopentane-1-carboxylic Acid, reference compound] |  |  |  |  | 65 ± 10 µM |  |  |  |  |  | suppressed | dramatically reduced | 0.00095 ± 5e-05 s⁻¹ | 14.5 M⁻¹ s⁻¹ |  |  | 
N[C@H]1CC(C(=O)O)=CCC1(F)F [Compound 11, (S)-5-Amino-4,4-difluorocyclohex-1-ene-1-carboxylic acid hydrochloride] |  |  |  | 2.5 M⁻¹ s⁻¹ | 540 ± 17 µM | 0.00138 s⁻¹ |  |  |  |  |  |  |  |  | > 9630 µM | > 0.00483 s⁻¹ | 0.5 M⁻¹ s⁻¹
